In brackets after ≈: the same amount, converted by molar mass. Where two headings read alike, the source gives them in different places.
Tests used:
E. coli ATCC 25922 = assay: Minimum inhibitory concentration (MIC), E. coli; type: cell-based, Escherichia coli
Description: (§1) Bacterial Strains. The Streptococcus pyogenes strains, Klebsiella pneumoniae, Escherichia coli, Staphylococcus aureus, Enterococcus faecalis used in the antibacterial activity studies ATCC 14289, 49399, 13883, 25922, 13709, 29212, respectively, are obtained from the American Type Culture Collection, Rockville, Md. The strain E. coli imp— is a mutant strain of wild type E. coli with increased outer membrane permeability and was grown in LB broth at 37 °C. S. pyogenes strain is grown in Todd-Hewitt broth. S. aureus is grown in trypticase soy broth, E. faecalis in Todd-Hewitt broth, wild type E. coli and K. pneumoniae, in nutrient broth.
(§2) Determination of Minimum Inhibitory Concentrations (MICs). The assays were carried out in […] volume in duplicate in 96-well clear flat-bottom plates. The bacterial suspension from an overnight culture growth in appropriate medium was added to a solution of test compound in 4% DMSO in water. Final bacterial inoculum was approximately 10^5-10^6 CFU/well. The percent growth of the bacteria in test wells relative to that observed for a well containing no compound was determined by measuring absorbance at 595 nm (A595) after 24 h. […] Both ampicillin and tetracycline is used as antibiotic-positive controls in each screening assay for S. pyogenes, E. coli imp-, E. coli, S. aureus, E. faecalis, K pneumoniae and P. vulgaris. Ciprofloxacin is used as an antibiotic positive control in each screening assay for P. aeruginosa.

S. aureus ATCC 13709 = assay: Minimum inhibitory concentration (MIC), S. aureus; type: cell-based, Staphylococcus aureus
Description: as §1, §2

[1] = Escherichia coli, ATCC25922, 24 h, read-out: MIC (E. coli)
[2] = Staphylococcus aureus, ATCC13709, 24 h, read-out: MIC (S. aureus)
[3] = Escherichia coli, ATCC25922, read-out: MIC (E. coli) +serum
[4] = Escherichia coli, ATCC25922, read-out: MIC (E. coli) alone
[5] = Staphylococcus aureus, ATCC13709, read-out: MIC (S. aureus) +serum, with serum
[6] = Staphylococcus aureus, ATCC13709, read-out: MIC (S. aureus) alone, alone (no serum)

SMILES | MIC (E. coli ATCC 25922; [1]) | MIC (S. aureus ATCC 13709; [2]) | also measured
CN(C)CCCOc1ccc(C(NC(=O)c2ccc(-c3cccc(NC(=O)c4ccc(-c5ccccc5)cc4)c3)o2)C(=O)N2CCN(C)CC2)cc1 (stereo not drawn) [Compound 70] | 25 to 50 mM (≈ 17500 to 35000 µg/mL) | 25 to 50 mM (≈ 17500 to 35000 µg/mL) | –
Cc1ccc(F)cc1-c1ccc(C(=O)Nc2cccc(-c3ccc(C(=O)NC(C(=O)N4CCNCC4)c4ccc(OCCCN(C)C)cc4)o3)c2)cc1 (stereo not drawn) [Compound 52] | 13 to 25 mM (≈ 9330 to 17900 µg/mL) | 6 to 13 mM (≈ 4310 to 9330 µg/mL) | –
Cc1cc(C(=O)Nc2cccc(-c3ccc(C(=O)NC(C(=O)N4CCNCC4)c4ccc(OCCCN(C)C)cc4)o3)c2)ccc1-c1ccccc1 (stereo not drawn) [Compound 62] | 3 to 6 mM (≈ 2100 to 4200 µg/mL) | 12 to 25 mM (≈ 8400 to 17500 µg/mL) | –
CN(C)CCCOc1ccc(C(NC(=O)c2ccc(-c3cccc(N(C)Cc4ccc(-c5ccccc5)cc4)c3)o2)C(=O)N2CCNCC2)cc1 (stereo not drawn) [drawing 89] | – | – | MIC (E. coli ATCC 25922; [3]): > 100 mM; MIC (E. coli ATCC 25922; [4]): 6 to 13 mM (≈ 4120 to 8920 µg/mL); MIC (S. aureus ATCC 13709; [5]): 50 to 100 mM (≈ 34300 to 68600 µg/mL); MIC (S. aureus ATCC 13709; [6]): 3 to 6 mM (≈ 2060 to 4120 µg/mL)
CCc1ccc(-c2ccc(C(=O)Nc3cccc(-c4ccc(C(=O)NC(C(=O)N5CCNCC5)c5ccc(OCCCN(C)C)cc5)o4)c3)cc2)cc1 (stereo not drawn) [Compound 35] | 50 to 100 mM (≈ 35700 to 71400 µg/mL) | 6 to 13 mM (≈ 4280 to 9280 µg/mL) | –
CN(C)CCCOc1ccc(C(NC(=O)c2ccc(-c3cccc(NC(=O)c4ccc(-c5ccccc5)cc4F)c3)o2)C(=O)N2CCNCC2)cc1 (stereo not drawn) [Compound 59] | 3 to 6 mM (≈ 2110 to 4220 µg/mL) | 6 to 13 mM (≈ 4220 to 9150 µg/mL) | –
CN(C)CCCOc1ccc(C(NC(=O)c2ccc(-c3cccc(NC(=O)c4ccc(-c5c(F)cccc5F)cc4)c3)o2)C(=O)N2CCNCC2)cc1 (stereo not drawn) [Compound 54] | 3 to 6 mM (≈ 2170 to 4330 µg/mL) | 13 to 25 mM (≈ 9380 to 18000 µg/mL) | –
CN(C)CCCOc1ccc(C(C(=O)N2CCNCC2)N(C)Cc2ccc(-c3cccc(NC(=O)c4ccc(-c5ccccc5)cc4)c3)o2)cc1 (stereo not drawn) [Compound 64] | 6 to 13 mM (≈ 4120 to 8920 µg/mL) | 3 to 6 mM (≈ 2060 to 4120 µg/mL) | –
Cc1ccc(C)c(-c2ccc(C(=O)Nc3cccc(-c4ccc(C(=O)NC(C(=O)N5CCNCC5)c5ccc(OCCCN(C)C)cc5)o4)c3)cc2)c1 (stereo not drawn) [Compound 43] | 25 to 50 mM (≈ 17800 to 35700 µg/mL) | 13 to 25 mM (≈ 9280 to 17800 µg/mL) | –
CN(C)CCCOc1ccc(C(NC(=O)c2ccc(-c3cccc(NC(=O)c4ccc(-c5ccccc5)cc4)c3)o2)C(=O)N2CCNCC2)cc1 (stereo not drawn) [drawing 88] | – | – | MIC (E. coli ATCC 25922; [3]): 50 to 100 mM (≈ 34300 to 68600 µg/mL); MIC (E. coli ATCC 25922; [4]): 6 to 13 mM (≈ 4110 to 8920 µg/mL); MIC (S. aureus ATCC 13709; [5]): 50 to 100 mM (≈ 34300 to 68600 µg/mL); MIC (S. aureus ATCC 13709; [6]): 3 to 6 mM (≈ 2060 to 4110 µg/mL)
CN(C)CCCOc1ccc(C(NC(=O)c2ccc(-c3cccc(NC(=O)c4ccc(-c5cccc(Cl)c5)cc4)c3)o2)C(=O)N2CCNCC2)cc1 (stereo not drawn) [Compound 48] | 13 to 25 mM (≈ 9360 to 18000 µg/mL) | 13 to 25 mM (≈ 9360 to 18000 µg/mL) | –
CN(C)CCCOc1ccc(C(NC(=O)c2ccc(-c3cccc(NC(=O)c4ccc(-c5ccc(F)cc5F)cc4)c3)o2)C(=O)N2CCNCC2)cc1 (stereo not drawn) [Compound 55] | 25 to 50 mM (≈ 18000 to 36100 µg/mL) | 6 to 13 mM (≈ 4330 to 9380 µg/mL) | –
Cc1cc(C)c(-c2ccc(C(=O)Nc3cccc(-c4ccc(C(=O)NC(C(=O)N5CCNCC5)c5ccc(OCCCN(C)C)cc5)o4)c3)cc2)c(C)c1 (stereo not drawn) [Compound 45] | 50 to 100 mM (≈ 36400 to 72800 µg/mL) | 13 to 25 mM (≈ 9460 to 18200 µg/mL) | –
CN(C)CCCOc1ccc(C(NC(=O)c2ccc(-c3cccc(NCc4ccc(-c5ccccc5)cc4)c3)o2)C(=O)N2CCNCC2)cc1 (stereo not drawn) [Compound 65] | 13 to 25 mM (≈ 8730 to 16800 µg/mL) | 3 to 6 mM (≈ 2020 to 4030 µg/mL) | –
COC(=O)N1CCN(C(=O)C(NC(=O)c2ccc(-c3cccc(NC(=O)c4ccc(-c5ccccc5)cc4)c3)o2)c2ccc(OCCCN(C)C)cc2)CC1 (stereo not drawn) [Compound 72] | > 100 mM | > 100 mM | –
CN(C)CCCOc1ccc(C(NC(=O)c2ccc(-c3cccc(N(C)Cc4ccc(-c5ccccc5)cc4)c3)o2)C(=O)N2CCNCC2)cc1 (stereo not drawn) [Compound 66] | 13 to 25 mM (≈ 8920 to 17100 µg/mL) | 3 to 6 mM (≈ 2060 to 4120 µg/mL) | –
Cc1cccc(-c2ccc(C(=O)Nc3cccc(-c4ccc(C(=O)NC(C(=O)N5CCNCC5)c5ccc(OCCCN(C)C)cc5)o4)c3)cc2)c1 (stereo not drawn) [Compound 39] | 13 to 25 mM (≈ 9100 to 17500 µg/mL) | 13 to 25 mM (≈ 9100 to 17500 µg/mL) | –

SMILES | MIC (E. coli ATCC 25922; [1]) | MIC (S. aureus ATCC 13709; [2]) | also measured
Cc1cccc(C)c1-c1ccc(C(=O)Nc2cccc(-c3ccc(C(=O)NC(C(=O)N4CCNCC4)c4ccc(OCCCN(C)C)cc4)o3)c2)cc1 (stereo not drawn) [Compound 44] | 25 to 50 mM (≈ 17800 to 35700 µg/mL) | 13 to 25 mM (≈ 9280 to 17800 µg/mL) | –
CC(=O)NCC1CN(c2ccc(N3CCOCC3)c(F)c2)C(=O)O1 (stereo not drawn) | – | – | MIC (E. coli ATCC 25922; Escherichia coli, ATCC25922; alone (no serum); read-out: MIC (E. coli) alone): 2 to 3 mM (≈ 675 to 1010 µg/mL); MIC (E. coli ATCC 25922; Escherichia coli, ATCC25922; with serum; read-out: MIC (E. coli) +serum): 3 to 6 mM (≈ 1010 to 2020 µg/mL); MIC (S. aureus ATCC 13709; Staphylococcus aureus, ATCC13709; alone (no serum); read-out: MIC (S. aureus) alone): 2 mM (≈ 675 µg/mL); MIC (S. aureus ATCC 13709; Staphylococcus aureus, ATCC13709; with serum; read-out: MIC (S. aureus) +serum): 2 to 3 mM (≈ 675 to 1010 µg/mL)
CC(=O)c1ccccc1-c1ccc(C(=O)Nc2cccc(-c3ccc(C(=O)NC(C(=O)N4CCNCC4)c4ccc(OCCCN(C)C)cc4)o3)c2)cc1 (stereo not drawn) | > 100 mM | 6 to 13 mM (≈ 4370 to 9460 µg/mL) | –
CN(C)CCCOc1ccc(C(NC(=O)c2ccc(-c3cccc(NC(=O)c4ccc(-c5cccc(F)c5)cc4)c3)o2)C(=O)N2CCNCC2)cc1 (stereo not drawn) | 6 to 13 mM (≈ 4220 to 9150 µg/mL) | 3 to 6 mM (≈ 2110 to 4220 µg/mL) | –
CN(C)CCCOc1ccc(C(NC(=O)c2ccc(-c3cccc(NC(=O)c4ccc(-c5ccccc5Cl)cc4)c3)o2)C(=O)N2CCNCC2)cc1 (stereo not drawn) [Compound 47] | 6 to 13 mM (≈ 4320 to 9360 µg/mL) | 25 to 50 mM (≈ 18000 to 36000 µg/mL) | –
CN(C)CCCOc1ccc(C(NC(=O)c2ccc(-c3cccc(NC(=O)c4ccc(-c5ccccc5)cc4)c3)s2)C(=O)N2CCNCC2)cc1 (stereo not drawn) [Compound 69] | 25 to 50 mM (≈ 17500 to 35100 µg/mL) | 25 to 50 mM (≈ 17500 to 35100 µg/mL) | –
Cc1ccccc1-c1ccc(C(=O)Nc2cccc(-c3ccc(C(=O)NC(C(=O)N4CCNCC4)c4ccc(OCCCN(C)C)cc4)o3)c2)cc1 (stereo not drawn) [Compound 38] | 3 to 6 mM (≈ 2100 to 4200 µg/mL) | 3 to 6 mM (≈ 2100 to 4200 µg/mL) | –
CN(C)CCCCC(NC(=O)c1ccc(-c2cccc(NC(=O)c3ccc(-c4ccccc4)cc3)c2)o1)C(=O)N1CCNCC1 (stereo not drawn) [Compound 68] | 50 to 100 mM (≈ 30400 to 60800 µg/mL) | 25 to 50 mM (≈ 15200 to 30400 µg/mL) | –
CN(C)CCCOc1ccc(C(NC(=O)c2ccc(-c3cccc(NC(=O)c4ccc(-c5ccccc5)cc4)c3)o2)C(=O)N2CCN(S(C)(=O)=O)CC2)cc1 (stereo not drawn) [Compound 71] | > 100 mM | > 100 mM | –
CCc1ccccc1-c1ccc(C(=O)Nc2cccc(-c3ccc(C(=O)NC(C(=O)N4CCNCC4)c4ccc(OCCCN(C)C)cc4)o3)c2)cc1 (stereo not drawn) [Compound 41] | 13 to 25 mM (≈ 9280 to 17800 µg/mL) | 3 to 6 mM (≈ 2140 to 4280 µg/mL) | –
Cc1cccc(-c2ccc(C(=O)Nc3cccc(-c4ccc(C(=O)NC(C(=O)N5CCNCC5)c5ccc(OCCCN(C)C)cc5)o4)c3)cc2)c1C (stereo not drawn) [Compound 42] | – | – | MIC (E. coli ATCC 25922; Escherichia coli, ATCC25922, 24 h; read-out: MIC (E. coli)): 13 to 25 mM (≈ 9280 to 17800 µg/mL); MIC (S. aureus ATCC 13709; Staphylococcus aureus, ATCC13709, 24 h; read-out: MIC (S. aureus)): 3 to 6 mM (≈ 2140 to 4280 µg/mL)
CN(C)CCCOc1ccc(C(NC(=O)c2ccc(-c3cccc(NC(=O)c4ccc(-c5ccc(C(C)(C)C)cc5)cc4)c3)o2)C(=O)N2CCNCC2)cc1 (stereo not drawn) [Compound 37] | > 100 mM | > 100 mM | –
CN(C)CCCOc1ccc(C(NC(=O)c2ccc(-c3cccc(NC(=O)c4ccc(-c5ccccc5F)cc4)c3)o2)C(=O)N2CCNCC2)cc1 (stereo not drawn) [Compound 53] | 13 to 25 mM (≈ 9150 to 17600 µg/mL) | 6 to 13 mM (≈ 4220 to 9150 µg/mL) | –
CN(C)CCCOc1ccc(C(NC(=O)c2ccc(-c3cccc(NC(=O)c4ccc(-c5cc(Cl)cc(Cl)c5)cc4)c3)o2)C(=O)N2CCNCC2)cc1 (stereo not drawn) [Compound 49] | > 100 mM | > 100 mM | –
CCCc1ccc(-c2ccc(C(=O)Nc3cccc(-c4ccc(C(=O)NC(C(=O)N5CCNCC5)c5ccc(OCCCN(C)C)cc5)o4)c3)cc2)cc1 (stereo not drawn) [Compound 36] | > 100 mM | 13 to 25 mM (≈ 9460 to 18200 µg/mL) | –
CN(C)CCCOc1ccc(C(NC(=O)c2ccc(-c3cccc(NC(=O)c4ccc(-c5ccccc5)cc4Cl)c3)o2)C(=O)N2CCNCC2)cc1 (stereo not drawn) [Compound 60] | 6 to 13 mM (≈ 4320 to 9360 µg/mL) | 25 to 50 mM (≈ 18000 to 36000 µg/mL) | –

— US7432264B2, “Antimicrobial biaryl compounds” (Isis Pharmaceuticals, Inc., priority 2000, dated 2008)
